Values joined by “and” are separate entries in the source; they are usually repeats but may differ in a detail not shown here. Identical values can stand only once.
Assays:
[1] = tested on: A549, HT29, Saos-2; assay: In vitro anti-proliferative activity, 72-h MTT, A549, HT29, Saos-2; assay type: cell-based; settings: read-out: In vitro anti-proliferative activity (72-h MTT IC50), Cell lines: A549, HT29, Saos-2
[2] = target: T1, cyclic AMP-dependent kinase (PKA) catalytic subunit (Homo sapiens, UniProt P17612); assay: PKA kinase assay (Kemptide phosphorylation); assay type: biochemical; settings: Table 2; read-out: Kinase inhibition PKA IC50
T1 construct: purchased Calbiochem 539487
Description: The reaction mixture (total volume 50 μl) consisted of 20 mM MOPS, pH 7.2, 25 mM β-glycerophosphate, 5 mM EGTA, 1 mM DTT, 1 mM Na3VO4, 10 mM MgCl2, 100 μM ATP, 0.2 μCi [γ-^32P]-ATP.

[3] = target: T2, mouse ERK-2 (Mus musculus, UniProt P63085); assay: ERK-2 kinase assay (MBP phosphorylation); assay type: biochemical; settings: Table 2; read-out: Kinase inhibition ERK2 IC50
T2 construct: purchased Upstate Biotechnologies
T2 sequence (P63085 whole entry): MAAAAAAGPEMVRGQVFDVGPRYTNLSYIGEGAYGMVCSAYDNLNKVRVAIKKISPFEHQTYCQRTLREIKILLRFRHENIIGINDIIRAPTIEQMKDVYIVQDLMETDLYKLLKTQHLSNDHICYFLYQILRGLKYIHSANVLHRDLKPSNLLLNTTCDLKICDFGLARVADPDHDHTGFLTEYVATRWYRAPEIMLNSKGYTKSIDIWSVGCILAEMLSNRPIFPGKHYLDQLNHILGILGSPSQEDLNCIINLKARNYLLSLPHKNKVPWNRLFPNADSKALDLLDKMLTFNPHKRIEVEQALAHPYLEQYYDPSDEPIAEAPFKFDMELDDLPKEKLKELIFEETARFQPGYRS
Description: ERK-2 kinase activity was measured by the incorporation of radioactive phosphate into myelin basic protein (MBP), catalysed by purified mouse ERK-2 (Upstate Biotechnologies). The reaction mixture (total volume 50 μL) consisted of 20 mM MOPS, pH 7.0,25 mM β-glycerophosphate, 5 mM EGTA, 1 mM DTT, 1 mM Na3VO4, 10 mM MgCl2, 100 μM ATP, 0.2 μCi [γ-^32P]-ATP.

[4] = tested on: KM12; assay: 72-h MTT proliferation assay, KM12; assay type: cell-based; settings: Homo sapiens, read-out: IC50 Cell line KM12
From the text: (§1) Selected compounds from the above examples were subjected to a standard cellular proliferation assay using seven different human tumour cell lines: A2780, A278CisF, CH1, CH1DoxR, HCT116, HT29 and KM12. […] Human tumour cell lines were obtained from the ATCC (American Type Culture Collection, 10801 University Boulevard, Manessas, Va. 20110-2209, USA). The results are shown in Table 1, together with the average IC50 over the seven different cell lines.

[5] = tested on: seven different human tumour cell lines: A2780, A278CisF, CH1, CH1DoxR, HCT116, HT29 and KM12; assay: 72-h MTT proliferation assay, average over seven cell lines; assay type: cell-based; settings: read-out: IC50 Cell line Average
From the text: Selected compounds from the above examples were subjected to a standard cellular proliferation assay using seven different human tumour cell lines: A2780, A278CisF, CH1, CH1DoxR, HCT116, HT29 and KM12.

[6] = tested on: CH1; assay: 72-h MTT proliferation assay, CH1; assay type: cell-based; settings: Homo sapiens, read-out: IC50 Cell line CH1
From the text: as §1

[7] = tested on: A2780; assay: 72-h MTT proliferation assay, A2780; assay type: cell-based; settings: Homo sapiens, read-out: IC50 Cell line A2780
From the text: as §1

[8] = tested on: HT29; assay: 72-h MTT proliferation assay, HT29; assay type: cell-based; settings: Homo sapiens, HT-29, read-out: IC50 Cell line HT29
From the text: as §1

[9] = tested on: A2780 CisR; assay: 72-h MTT proliferation assay, A2780 CisR; assay type: cell-based; settings: Homo sapiens, A2780cisR, read-out: IC50 Cell line A2780 CisR
From the text: as §1

[10] = tested on: CH1DoxR; assay: 72-h MTT proliferation assay, CH1DoxR; assay type: cell-based; settings: Homo sapiens, read-out: IC50 Cell line CH1DoxR
From the text: as §1

[11] = target: T3, CDK2/cyclin E (Homo sapiens, UniProt P24941); assay: CDK2/cyclin E kinase assay (GST-Rb phosphorylation); assay type: biochemical; settings: Table 1
T3 construct: His; made in house; host or cells: Sf9 insect cells (baculovirus)
Description: (§2) Assays for CDK2/cyclin E kinase, CDK1/cyclin B and CDK4/cyclin D1 may be carried out by monitoring phosphorylation of GST-Rb in an appropriate system. […] The phosphorylation reaction mixture (total volume 40 μl) consisted of 50 mM HEPES pH 7.4, 20 mM MgCl2, 5 mM EGTA, 2 mM DTT, 20 mM β-glycerophosphate, 2 mM NaF, 1 mM Na3VO4, Protease Inhibitors Cocktail (Sigma, see above), BSA 0.5 mg/ml, 1 μg purified enzyme complex, 10 μl of GST-Rb-Sepharose-beads, 100 μM ATP, 0.2 μCi ^32P-ATP. The reaction is carried out for 30 min at 30° C. at constant shaking. At the end of this period 100 μl of 50 mM HEPES, pH 7.4 and 1 mM ATP is added to each well and the total volume transferred onto GFC filtered plate. The plate is washed 5 times with 200 μl of 50 mM HEPES, pH 7.4 and 1 mM ATP. To each well was added 50 μl scintillant liquid and the radioactivity of the samples is measured on Scintilation counter (Topcount, HP). The IC50 values of different peptides were calculated using GraFit software.
For use in said assay CDK2 may be obtained from available sources or produced by recombinant methods as described His-tagged CDK2/Cyclin E and CDK1/Cyclin B may be co-expressed in Sf 9 insect cells infected with the appropriate baculovirus constructs. The cells are harvested two days after infection by low speed centrifugation and the proteins purified from the insect cell pellets by Metal-chelate chromatography. Briefly, the insect cell pellet is lysed in Buffer A (10 mM Tris-HCl, pH 8.0, 150 mM NaCl, 0.02% NP40 and 5 mM, β-marcaptoethanol, 1 mM NaF. 1 mM Na3VO4 and Protease Inhibitors Coctail (Sigma) containing AEBSF, pepstatin A, E 64, bestatin, leupeptin) by sonication. The soluble fraction is cleared by centrifugation and loaded onto Ni-NTA-Agarose (Quiagen). Non bound proteins were washed off with 300 mM NaCl, 5-15 mM Imidazole in Buffer A and the bound proteins eluted with 250 mM Imidazole in Buffer A. The purified proteins are extensively dialyzed against Storage buffer (20 mM HEPES pH 7.4, 50 mM NaCl, 2 mM DTT, 1 mM EDTA, 1 mM EGTA, 0.02% NP40, 10% v/v Glycerol) aliquoted and stored at −70° C. PKC-α—6×His may be purified the same way but using different buffers—50 mM NaH2PO4, pH 8.0 and 0.05% Triton X-100 instead of Tris and NP40 respectively.

[12] = tested on: HCT116; assay: 72-h MTT proliferation assay, HCT116; assay type: cell-based; settings: Homo sapiens, HCT-116, read-out: IC50 Cell line HCT116
From the text: as §1

[13] = target: CDK7/cyclin H (Homo sapiens, UniProt P50613); assay: CDK7/cyclin H kinase inhibition; assay type: biochemical; settings: Table 2
Chain of CDK7/cyclin H (P50613 whole entry, species assumed): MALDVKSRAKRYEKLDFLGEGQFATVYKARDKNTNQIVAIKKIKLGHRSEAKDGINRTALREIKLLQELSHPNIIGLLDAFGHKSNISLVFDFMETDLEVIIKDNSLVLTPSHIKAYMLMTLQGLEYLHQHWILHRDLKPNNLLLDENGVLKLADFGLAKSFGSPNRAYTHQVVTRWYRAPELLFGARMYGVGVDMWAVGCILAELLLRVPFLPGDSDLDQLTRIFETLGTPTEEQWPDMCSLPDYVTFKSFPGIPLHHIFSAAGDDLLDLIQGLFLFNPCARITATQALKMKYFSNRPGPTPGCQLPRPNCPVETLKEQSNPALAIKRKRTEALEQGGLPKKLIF
Chain of CDK7/cyclin H (P51946 whole entry partner, species assumed): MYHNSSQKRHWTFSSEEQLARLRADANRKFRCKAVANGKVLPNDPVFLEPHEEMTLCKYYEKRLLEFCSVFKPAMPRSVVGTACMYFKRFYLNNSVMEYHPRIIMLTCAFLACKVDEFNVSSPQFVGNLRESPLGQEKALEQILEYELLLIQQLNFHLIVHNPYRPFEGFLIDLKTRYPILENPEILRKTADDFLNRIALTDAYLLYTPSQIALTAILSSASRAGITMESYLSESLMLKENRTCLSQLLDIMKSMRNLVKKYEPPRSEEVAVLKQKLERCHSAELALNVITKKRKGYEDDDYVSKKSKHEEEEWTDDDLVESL

[14] = target: CDK4/cyclin D1 (Homo sapiens, UniProt P11802); assay: CDK4/cyclin D1 kinase assay (GST-Rb phosphorylation); assay type: biochemical; settings: Table 2; read-out: Kinase inhibition CDK4/cyclin D1 IC50
Chain of CDK4/cyclin D1 (P11802 whole entry, species assumed): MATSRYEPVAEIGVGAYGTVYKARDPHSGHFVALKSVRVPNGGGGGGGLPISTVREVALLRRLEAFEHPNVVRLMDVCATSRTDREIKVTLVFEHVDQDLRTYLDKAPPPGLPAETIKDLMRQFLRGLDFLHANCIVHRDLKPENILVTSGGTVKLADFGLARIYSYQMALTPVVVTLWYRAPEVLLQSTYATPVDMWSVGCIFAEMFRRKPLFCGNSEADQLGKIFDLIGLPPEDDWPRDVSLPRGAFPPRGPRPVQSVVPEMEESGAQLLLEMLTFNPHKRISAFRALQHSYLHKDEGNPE
Chain of CDK4/cyclin D1 (P24385 whole entry partner, species assumed): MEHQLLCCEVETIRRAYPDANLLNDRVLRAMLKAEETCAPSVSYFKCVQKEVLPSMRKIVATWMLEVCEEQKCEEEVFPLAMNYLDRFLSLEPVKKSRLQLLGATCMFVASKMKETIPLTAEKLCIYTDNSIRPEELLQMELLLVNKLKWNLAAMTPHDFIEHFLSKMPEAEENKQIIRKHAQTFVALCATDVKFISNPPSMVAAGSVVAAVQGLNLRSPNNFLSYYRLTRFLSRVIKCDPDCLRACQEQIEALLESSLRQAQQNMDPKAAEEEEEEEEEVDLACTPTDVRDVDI
Description: as §2

[15] = Metabolic carbinol-carboxyl oxidation; settings: remark in Table 1
[16] = in vivo; settings: mouse

SMILES | IC50 [1] | IC50 [2] | IC50 [3] | IC50 [4] | IC50 [5] | IC50 [6] | IC50 [7] | IC50 [8] | IC50 [9] | IC50 [10] | IC50 [11] | IC50 [12] | IC50 [13] | IC50 [14] | PK remark: carbinol metabolism [15] | AUC(0-inf) [16] | half-life [16]
CCC(O)[C@H](CC)Nc1nc(NCc2ccccc2)c2ncn(C(C)C)c2n1 (stereo partly drawn) [Example 10] | 20 µM | > 200 µM |  |  |  |  |  |  |  |  |  |  |  |  |  |  | 
CCC(Nc1nc(NCc2ccccc2)c2ncn(C(C)C)c2n1)C(C)O (stereo not drawn) [Example 7] |  | > 50 µM | > 50 µM and 43 µM and 29 µM |  |  |  |  |  |  |  |  |  |  |  |  |  | 
CC(C)[C@H](CO)Nc1nc(Nc2cccc([N+](=O)[O-])c2)c2ncn(C(C)C)c2n1 [Example 3, (R)-2-[9-Isopropyl-6-(3-nitro-phenylamino)-9H-purin-2-ylamino]-3-methyl-butan-1-ol] |  |  |  | 1.05 µM | 2.3 µM | 2.3 µM | 1.1 µM | 4.3 µM | 2.85 µM | 1.8 µM | 0.33 ± 0.45 µM | 2.45 µM |  |  |  |  | 
CC[C@H](Nc1nc(NCc2ccccc2)c2ncn(C(C)C)c2n1)C(C)(C)O [Example 16, (S)-3-(6-Benzylamino-9-isopropyl-9H-purin-2-ylamino)-2 methyl-pentan-2-ol] | 10 µM | ≥ 200 µM |  |  |  |  |  |  |  |  |  |  | 2 µM | 8.5 µM |  |  | 
CC[C@H](CO)Nc1nc(Nc2cccc([N+](=O)[O-])c2)c2ncn(C(C)C)c2n1 [Example 4, (R)-2-[9-Isopropyl-6-(3-nitro-phenlamino)-9H-purin-2-ylamino]-butan-1-ol] |  |  |  | 0.76 µM | 1.1 µM | 1.1 µM | 0.245 µM | 2.1 µM | 1.7 µM | 0.56 µM | 0.028 ± 0.01 µM | 1.2 µM |  |  |  |  | 
CCC(O)[C@@H](CC)Nc1nc(NCc2ccccc2)c2ncn(C(C)C)c2n1 (mixture of isomers) [Example 9, (3RS,4R)-4-(6-Benzylamino-9-isopropyl-9H-purin-2-ylamino)-hexan-3-ol] | 11 µM | 139 µM | 103 µM |  |  |  |  |  |  |  |  |  | 1.2 µM | 34 µM |  |  | 
CC[C@@H](Nc1nc(NCc2ccccc2)c2ncn(C(C)C)c2n1)[C@H](C)O [Example 7 (2S,3R), (2S, 3R)-3-(6-Benzylamino-9-isopropyl-9H-purin-2-ylamino)-pentan-2-ol] |  |  |  | 5.4 µM | 6.9 µM | 5 µM | 6.4 µM |  | 3.8 µM | 4.6 µM |  | 5.4 µM |  |  | Blocked carbinol metabolism |  | 
CC[C@@H](Nc1nc(NCc2ccccc2)c2ncn(C(C)C)c2n1)C(C)O (mixture of isomers) [7 (2RS,3R), (2RS, 3R)-3-(6-Benzylamino-9-isopropyl-9H-purin-2-ylamino)-pentan-2-ol] |  |  |  | 19 µM | 13.8 µM | 17 µM | 6.6 µM | 15 µM | 15 µM | 12 µM |  | 12 µM |  |  | Blocked carbinol metabolism |  | 
CC[C@H](Nc1nc(NCc2ccccc2)c2ncn(C(C)C)c2n1)C(O)C(C)C (stereo partly drawn) [Example 12] |  | 83 µM | 88 µM |  |  |  |  |  |  |  |  |  |  |  |  |  | 
CC[C@@H](Nc1nc(NCc2ccccc2)c2ncn(C(C)C)c2n1)C(O)C(C)(C)C (mixture of isomers) [Example 13, (3RS,4R)-4-(6-Benzylamino-9-isopropyl-9H-purin-2-ylamino)-2,2-dimethyl-hexan-3-ol] | 18 µM | 87 µM | > 200 µM |  |  |  |  |  |  |  |  |  | 3.7 µM | > 200 µM |  |  | 
CC[C@H](Nc1nc(NCc2ccccc2)c2ncn(C(C)C)c2n1)[C@@H](C)O [Example 7 (2R,3S), (2R,3S)-3-(6-Benylamino-9-isopropyl-9H-purin-2-ylamino)-pentan-2-ol] |  |  |  | 1.9 µM |  | 1.8 µM | 3.3 µM | 5 µM | 3.4 µM | 1.3 µM |  | 1.5 µM |  |  | Blocked carbinol metabolism |  | 
CC[C@H](Nc1nc(NCc2ccccc2)c2ncn(C(C)C)c2n1)C(O)C(C)(C)C (mixture of isomers) [Example 14, (3RS,4S)-4-(6-Benzylamino-9-isopropyl-9H-purin-2-ylamino)-2,2-dimethyl-hexan-3-ol] | 22 µM | > 200 µM | > 200 µM |  |  |  |  |  |  |  |  |  | 4.3 µM | 60 µM |  |  | 
CC[C@@H](Nc1nc(NCc2ccccc2)c2ncn(C(C)C)c2n1)C(O)C(C)C (mixture of isomers) [Example 11, (3RS,4R)-4-(6-Benzylamino-9-isopropyl-9H-purin-2-ylamino)-2-methyl-hexan-3-ol] | 11 µM | 92 µM | > 200 µM |  |  |  |  |  |  |  |  |  | 4.4 µM | 28 µM |  |  | 
CC[C@@H](Nc1nc(NCc2ccccc2)c2ncn(C(C)C)c2n1)C(C)(C)O [Example 15] | 15 µM | 191 µM |  |  |  |  |  |  |  |  |  |  | 3.7 µM | 12 µM |  |  | 
COc1ccc(CNc2nc(N3CCCC(O)C3)nc3c2ncn3C2CCCC2)cc1OC (stereo not drawn) [Example 2, 1-[9-Cyclopentyl-6-(3.4-dimethoxy-benzylamino)-9H-purin-2-yl]piperidin-3-ol] |  |  |  | 6.4 µM | 4.9 µM | 0.94 µM | 0.078 µM | 4.4 µM | 14 µM | 2.4 µM | 1.84 ± 0.31 µM | 6.1 µM |  |  |  | 19500 ng·h/mL | 4.2 h
OC1CCCN(c2nc(Nc3ccc4c(c3)CCC4)c3ncn(C4CCCC4)c3n2)C1 (stereo not drawn) [Example 1, 1-[9-Cyclopentyl-6-(indan-5-ylamino)-9H-purin-2-yl]-piperidin-3-ol] |  |  |  | 0.34 µM | 2 µM | 1.5 µM | 2.2 µM | 1.8 µM | 1.1 µM | 1.7 µM | 0.58 ± 0.33 µM | 5.7 µM |  |  |  | 62500 ng·h/mL | 5.5 h

Source: patent publication US7612079B2, “2,6,9-substituted purine derivatives and their use in the treatment of proliferative disorders” (Cyclacel Limited, priority 2001, dated 2009)
